Data: patent publication US20220096592A1, “PIC1 VARIANTS WITH IMPROVED SOLUBILITY AND METHODS OF USING THE SAME” (priority 2019, published 2022)
Where a SMILES comes first, the peptide text is derived from it. [ ]: non-standard residue; d: D form. Sar = CNCC(=O)O

Experiments:
[1] = tested on: antibody-initiated complement activation (ABO incompatible hemolysis); settings: for inhibition of ABO incompatible hemolysis, in words: peptides at 1.8 mM, compared with PA-dPEG24, FIG. 1A; for complement inhibition overall, in words: both hemolytic complement inhibition assays
Method: (§1) For hemolytic complement assays, human red blood cells (RBCs) from type AB donors were purified, washed and standardized to 1×10^9 cells/ml, as previously described. Human sera from type 0 donors at a 20% final concentration was combined with […] PIC1 or sarcosine variant peptides, and the volume was brought up to 0.15 ml with GVBS^++ and […] RBCs. For factor B-depleted sera hemolytic assays, a final of 0.005% factor B depleted sera was incubated with […] PIC1 or sarcosine variant peptides with 0.1 ml antibody-sensitized sheep red blood cells (EA) in a final volume of 0.75 ml GVBS^++. The samples were incubated for one hour at 37° C. Then, 1.0 ml of GVBS^−− was added to the factor B-depleted samples to stop the reaction. The samples were spun at 3,000 rpm for 5 minutes. The supernatant was then collected and read at 412 nm. An analysis was performed to represent the values as a percent of the positive control, which consists of human 0 sera and AB red blood cells in GVBS^++ buffer.
(§2) An evaluation of the extent to which the peptide variants inhibit antibody-initiated complement activation was performed. The peptide variants were tested in the following two hemolytic assays: (i) an ABO incompatibility ex vivo assay and (ii) a classical pathway CH50-type assay in factor B-depleted sera.
In the ABO incompatibility hemolytic assay, purified erythrocytes from a ‘type AB+’ donor were incubated with sera from a ‘type 0’ subject containing anti-A and anti-B antibodies; peptides were tested at 1.8 mM.

[2] = target: T1, MPO heme ring (Homo sapiens, UniProt P05164); assay: MPO heme ring oxidative degradation (absorbance 300-550 nm); type: biochemical; settings: peptides at 3 mM, with H2O2, FIG. 3A-3H
T1 construct: purchased Lee BioSolutions (Maryland Heights, Mo.)
Method: In a 96 well plate, 0.025 ml of 1.7 mg/ml MPO was combined with 0.00125 ml of 0.5% H2O2 and 3 mM PIC1 or sarcosine variant peptides in a total volume of 0.125 ml PBS and left to incubate at room temperature for 2 minutes. Using a 96 well plate reader, the wells were scanned for absorbance from 300-550 nm to generate curves reflecting the iron state in the MPO heme ring, as previously reported.
The ability of the variants to prevent degradation of the heme ring in the MPO molecule was then evaluated. […] Degradation of the heme ring can be evaluated via spectrometric measurements of absorption of wavelengths from 300 to 550 nm.

[3] = Total Antioxidant Capacity (TAC) assay; settings: for total antioxidant capacity, in words: 0.03-0.25 mM, copper reducing equivalents, FIG. 4
Method: The TAC (Total Antioxidant Capacity) Assay (Cell Biolabs, Inc. San Diego, Calif.) was used to measure the antioxidant capacity of the sarcosine variants based on the reduction of copper (II) to copper (I). The assay was performed according to the recommended kit protocol.
Antioxidant activity was measured in copper reducing equivalents (CRE). Peptides were tested over a range of concentrations from 0.03-0.25 mM then compared to the standard.

[4] = tested on: purified human neutrophils; assay: NETosis assay (immune complex activated serum and H2O2; PicoGreen free DNA, fluorescence microscopy); type: cell-based; settings: peptides at 2 mM, FIG. 5A
Method: NETosis assays with immune complexes were performed as previously described. Briefly, normal human serum was stimulated with ovalbumin-antiovalbumin immune complexes in GVBS^++ for 30 minutes at 37° C. This mixture along with 0.05% H2O2 was then added to purified human neutrophils resuspended in RPMI with or without sarcosine variants (2 mM), allowing NETosis to occur. Quantitation of free DNA released from the neutrophils was performed using PicoGreen. Slides were stained with DAPI (Southern Biotech, Birmingham, Ala.). The following antibodies were used to visualize formation of NETs: • (i) mouse anti-elastase (Invitrogen, Carlsbad, Calif.) as a primary antibody with the secondary goat anti-mouse antibody Alexa Fluor 568 (Novus Biologicals, Centennial, Colo.) and • (ii) rabbit anti-histone H3 (Abcam, Cambridge Mass.) with goat anti-rabbit antibody Alexa Fluor 488 (Novus Biologicals). Fluorescence microscopy using an Olympus BX53 microscope was performed to visualize NETs.
The peptide variants were tested for inhibition of NETosis. In this assay, purified human neutrophils were stimulated with normal human serum activated with ovalbumin-antiovalbumin immune complexes and hydrogen peroxide. Free DNA expressed from the neutrophils was then measured in a PicoGreen assay. […] Direct visualization of neutrophil extracellular trap (NET) formation by fluorescence microscopy was used to confirm the above NETosis results with the 18 variant. Human neutrophils were purified and stimulated on glass slides then stained with DAPI to visualize DNA and probed with anti-neutrophil elastase (αNE) and anti-histone H3 (αhistone), as previously described. […] Fluorescence microscopy visualization of NETs confirmed the findings seen for quantitative measurements of free DNA.

[5] = target: T2, C1q (Homo sapiens, UniProt P02745+P02746+P02747); assay: ELISA-type assay of peptide binding to C1q; settings: binding curves and half-maximal binding, FIG. 1C, 1D
T2 construct: purchased Complement Technology (Tyler, Tex.)
Method: (§3) The plates were washed with PBST (phosphate buffered saline+0.1% Tween) and then blocked with 1% gelatin/PBS for 2 hours at room temperature. After washing, the plates were incubated with PA or sarcosine variant peptides starting at 2.5 mg/ml and then serially diluted in 1% gelatin/PBS for 1 hour at room temperature. After washing, the plates were probed with rabbit anti-PA (developed with Cocalico Biologicals, Reamstown, Pa.) at 1:1000 in 1% gelatin/PBS for 1 hour, room temperature, followed by a goat anti-rabbit HRP (Sigma Aldrich, St Louis, Mo.) at 1:1,000 in 1% gelatin/PBS for 1 hour at room temperature with a washing step in between. Wells were developed using TMB substrate solution, stopped using 1 N H2SO4, and read at 450 nm in a plate reader.
Higher concentrations of DMSO interfere with the detecting reagents resulting in a partial binding curve.

[6] = target: T3, MPO (Homo sapiens, UniProt P05164); assay: plate-based assay of binding to solid phased MPO; settings: binding curves and half-maximal binding, FIG. 2C, 2D
T3 construct: purchased Lee BioSolutions (Maryland Heights, Mo.)
Method: as §3
A plate-based assay was performed to test the binding of the peptide variants to solid phased MPO. MPO binding was identified for all variants, except for C9,10.

[7] = tested on: classical complement pathway
Method: as §1, §2
A CH50-type hemolytic assay was then performed. with antibody-sensitized sheep erythrocytes, isolating the classical pathway by utilizing factor B-depleted sera; peptides were tested at 0.4 mM.

[8] = target: T4, myeloperoxidase (MPO) (Homo sapiens, UniProt P05164); assay: MPO peroxidase activity, TMB-based assay; type: biochemical
T4 construct: purchased Lee BioSolutions (Maryland Heights, Mo.)
Method: PIC1 and sarcosine variants were diluted to 25 mg/ml and then serially titrated in a 96 well plate at a volume of 0.02 ml. Myeloperoxidase (MPO) was diluted to 20 μg/ml and 0.02 ml was added to the titrated peptides. TMB (3,3′,5,5′-tetramethylbenzidine) (0.1 ml) was added to each well for 2 minutes, followed by 0.1 ml of 2.5 N H2SO4 for another 2 minutes, and then read on a 96 well plate reader (BioTek) at 450 nm.
In this assay, the variants were tested for MPO inhibition over a range of concentrations. Strong MPO inhibition was found for all variants with the exception of the no-cysteine variant (C9,10).

[9] = summary grade of Table 4, key not given

T1 sequence (P05164 279-745 limits assumed): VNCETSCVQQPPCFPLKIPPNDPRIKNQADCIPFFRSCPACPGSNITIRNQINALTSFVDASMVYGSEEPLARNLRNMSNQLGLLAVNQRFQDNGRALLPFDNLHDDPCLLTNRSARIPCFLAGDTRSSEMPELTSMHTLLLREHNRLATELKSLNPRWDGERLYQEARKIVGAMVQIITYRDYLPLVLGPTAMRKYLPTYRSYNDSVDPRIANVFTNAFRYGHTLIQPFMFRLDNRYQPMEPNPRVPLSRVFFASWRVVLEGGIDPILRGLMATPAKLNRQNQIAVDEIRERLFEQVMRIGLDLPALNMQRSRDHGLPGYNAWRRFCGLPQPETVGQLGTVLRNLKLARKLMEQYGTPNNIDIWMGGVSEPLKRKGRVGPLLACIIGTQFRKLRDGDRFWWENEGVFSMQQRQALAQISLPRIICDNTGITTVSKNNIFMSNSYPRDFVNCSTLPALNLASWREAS
T1 sequence (P05164 165-273 limits assumed): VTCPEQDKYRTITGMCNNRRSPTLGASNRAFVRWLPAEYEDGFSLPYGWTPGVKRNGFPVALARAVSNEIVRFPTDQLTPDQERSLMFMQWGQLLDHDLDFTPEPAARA
T4 sequence (P05164 279-745 limits assumed): as the sequence (P05164 279-745 limits assumed) above
T4 sequence (P05164 165-273 limits assumed): as the sequence (P05164 165-273 limits assumed) above
T3 sequence (P05164 279-745 limits assumed): as the sequence (P05164 279-745 limits assumed) above
T3 sequence (P05164 165-273 limits assumed): as the sequence (P05164 165-273 limits assumed) above
T2 sequence (P02745 23-245): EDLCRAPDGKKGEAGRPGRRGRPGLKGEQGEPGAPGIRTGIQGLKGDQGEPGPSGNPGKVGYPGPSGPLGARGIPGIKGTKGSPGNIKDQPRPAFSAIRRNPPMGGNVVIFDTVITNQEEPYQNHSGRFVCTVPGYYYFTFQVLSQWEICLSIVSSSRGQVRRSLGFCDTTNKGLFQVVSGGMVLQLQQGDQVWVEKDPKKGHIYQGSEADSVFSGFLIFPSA
T2 sequence (P02746 28-253): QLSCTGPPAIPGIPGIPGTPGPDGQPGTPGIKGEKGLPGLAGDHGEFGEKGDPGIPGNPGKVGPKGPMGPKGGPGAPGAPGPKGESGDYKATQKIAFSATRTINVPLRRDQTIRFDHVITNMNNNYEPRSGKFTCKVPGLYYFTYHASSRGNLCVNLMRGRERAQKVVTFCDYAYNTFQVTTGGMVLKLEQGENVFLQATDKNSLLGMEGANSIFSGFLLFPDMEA
T2 sequence (P02747 29-245): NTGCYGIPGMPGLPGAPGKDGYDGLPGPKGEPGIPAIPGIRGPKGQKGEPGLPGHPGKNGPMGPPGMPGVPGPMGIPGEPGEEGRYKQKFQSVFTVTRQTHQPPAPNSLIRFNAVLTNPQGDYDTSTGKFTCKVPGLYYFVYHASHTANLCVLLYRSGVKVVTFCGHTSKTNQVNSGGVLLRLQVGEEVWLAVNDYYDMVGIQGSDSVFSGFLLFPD

Compound	inhibition of ABO incompatible hemolysis, in words [1]	complement inhibition overall, in words [1]	inhibition of heme ring degradation, in words [2]	total antioxidant capacity, in words [3]	inhibition of NETosis (free DNA, PicoGreen), in words [4]	also measured
CC[C@H](C)[C@H](N)C(=O)N(C)CC(=O)N[C@@H](CC(C)C)C(=O)N[C@H](C(=O)N[C@@H](CC(C)C)C(=O)N[C@@H](CCC(=O)O)C(=O)N1CCC[C@H]1C(=O)N[C@H](C(=O)N[C@@H](CS)C(=O)N[C@@H](CS)C(=O)N[C@@H](CCC(N)=O)C(=O)N[C@@H](CCC(=O)O)C(=O)N[C@@H](CCCNC(=N)N)C(=O)N[C@@H](C)C(=O)N[C@@H](C)C(=O)O)[C@@H](C)CC)[C@@H](C)CC [A2] (H-I[Sar]LILEPICCQERAA-OH)	inhibited ABO incompatible hemolysis to a greater extent than did the PA-dPEG24					
CC[C@H](C)[C@H](N)C(=O)N[C@@H](C)C(=O)N[C@@H](CC(C)C)C(=O)N[C@H](C(=O)N[C@@H](CC(C)C)C(=O)N[C@@H](CCC(=O)O)C(=O)N1CCC[C@H]1C(=O)N[C@H](C(=O)N(C)CC(=O)N[C@@H](CS)C(=O)N[C@@H](CCC(N)=O)C(=O)N[C@@H](CCC(=O)O)C(=O)N[C@@H](CCCNC(=N)N)C(=O)N[C@@H](C)C(=O)N[C@@H](C)C(=O)O)[C@@H](C)CC)[C@@H](C)CC [C9] (H-IALILEPI[Sar]CQERAA-OH)	inhibited ABO incompatible hemolysis to a greater extent than did the PA-dPEG24	performed almost identically to the parent compound, PA-dPEG24	near perfect preservation of the heme ring absorption spectrum	approximately half of the antioxidant capacity as PA-dPEG24		
CC[C@H](C)[C@H](N)C(=O)N[C@@H](C)C(=O)N[C@@H](CC(C)C)C(=O)N(C)CC(=O)N[C@@H](CC(C)C)C(=O)N[C@@H](CCC(=O)O)C(=O)N1CCC[C@H]1C(=O)N[C@H](C(=O)N[C@@H](CS)C(=O)N[C@@H](CS)C(=O)N[C@@H](CCC(N)=O)C(=O)N[C@@H](CCC(=O)O)C(=O)N[C@@H](CCCNC(=N)N)C(=O)N[C@@H](C)C(=O)N[C@@H](C)C(=O)O)[C@@H](C)CC [I4] (H-IAL[Sar]LEPICCQERAA-OH)	inhibited ABO incompatible hemolysis to a greater extent than did the PA-dPEG24			antioxidant capacity approaching that of PA-dPEG24	reduced ability to inhibit NETosis compared with PA-dPEG24	
CC[C@H](C)[C@H](N)C(=O)N[C@@H](C)C(=O)N[C@@H](CC(C)C)C(=O)N[C@H](C(=O)N[C@@H](CC(C)C)C(=O)N[C@@H](CCC(=O)O)C(=O)N1CCC[C@H]1C(=O)N[C@H](C(=O)N[C@@H](CS)C(=O)N[C@@H](CS)C(=O)N[C@@H](CCC(N)=O)C(=O)N[C@@H](CCC(=O)O)C(=O)N[C@@H](CCCNC(=N)N)C(=O)N[C@@H](C)C(=O)N[C@@H](C)C(=O)O)[C@@H](C)CC)[C@@H](C)CC [PA]						binding to C1q, in words [5]: superior binding to C1q as compared with the other peptides; binding to MPO, in words [6]: near complete overlay of the 18 and PA curves
CC[C@H](C)[C@H](N)C(=O)N[C@@H](C)C(=O)N(C)CC(=O)N[C@H](C(=O)N[C@@H](CC(C)C)C(=O)N[C@@H](CCC(=O)O)C(=O)N1CCC[C@H]1C(=O)N[C@H](C(=O)N[C@@H](CS)C(=O)N[C@@H](CS)C(=O)N[C@@H](CCC(N)=O)C(=O)N[C@@H](CCC(=O)O)C(=O)N[C@@H](CCCNC(=N)N)C(=O)N[C@@H](C)C(=O)N[C@@H](C)C(=O)O)[C@@H](C)CC)[C@@H](C)CC [L3] (H-IA[Sar]ILEPICCQERAA-OH)				antioxidant capacity approaching that of PA-dPEG24		
CC[C@H](C)[C@H](N)C(=O)N[C@@H](C)C(=O)N[C@@H](CC(C)C)C(=O)N[C@H](C(=O)N[C@@H](CC(C)C)C(=O)N[C@@H](CCC(=O)O)C(=O)N1CCC[C@H]1C(=O)N[C@H](C(=O)N(C)CC(=O)N[C@@H](CCC(N)=O)C(=O)N[C@@H](CCC(=O)O)C(=O)N[C@@H](CCCNC(=N)N)C(=O)N[C@@H](C)C(=O)N[C@@H](C)C(=O)O)[C@@H](C)CC)[C@@H](C)CC [C9, 10] (H-IALILEPI[Sar]QERAA-OH)	minimal inhibition of ABO hemolysis	most, but not all, complement inhibition was lost	showed inhibition of heme ring degradation	no antioxidant capacity	only slight inhibition relative to the negative control	ABO C’ inhibition [1, 9]: 0; inhibition of classical pathway hemolysis, in words ([7]; peptides at 0.4 mM, compared with PA-dPEG24, FIG. 1B): minimal activity; Classical C’ inhibition [7, 9]: 0; MPO inhibition, in words ([8]; dose-response and half-maximal inhibition, FIG. 2A, 2B): does not possess; MPO inhibition [8, 9]: 0; Total Antioxidant Cap [3, 9]: 0
